Experimental data taken from US8008351B2, “Methods for prophylaxis or treatment of conditions associated with cortical spreading depression” (UCB Pharma GmbH, priority 2004, dated 2011).
Entries after “also recorded” stand apart in the source; their conditions may differ.

Tests used:
[1] = tested on: rat model of migraine (Cortical Spreading Depression, CSD); assay: Cortical spreading depression (CSD) rat model of migraine: number of KCl-induced direct current (DC) potentials; type: in vivo, rat (Wistar); settings: for Number of DC: n = 10, mean ± SD
Method: (§1) All animal experiments were carried out according to the National Institute of Health (NIH) guidelines for the care and use of laboratory animals, and approved by the Ethical Committee of the National Laboratory Animal Center, Kuopio, Finland. Altogether 77 adult male Wistar rats, purchased from Harlan, Netherlands, and weighing 250-350 g were used for the experiment. Animals were housed at a standard temperature (22±1° C.) and in a light-controlled environment (lights on from 7 am to 9 pm) with ad libitum access to food and water. Animals were grouped as follows: • 15 rats treated with SPM 927 (3 mg/kg; i.p.) 30 min before the CSD episode • 15 rats treated with SPM 927 (10 mg/kg; i.p.) 30 min before the CSD episode • 15 rats treated with SPM 927 (30 mg/kg; i.p.) 30 min before the CSD episode • 15 rats treated with Valproic acid (250 mg/kg; i.p.) 30 min before the CSD episode • 15 rats treated with Vehicle (2 ml/kg; i.p.) 30 min before CSD episode • 2 sham rats without CSD episode (topical NaCl application) and without any treatment Subgroups: • 10 rats to DC-potential, CBF, and blood pH, pO2, pCO2, glucose and mean arterial pressure analysis (rats killed at 30 min after CSD, brains fresh-frozen) • 5 rats to jugular vein cannulation (CGRP sampling) and dural as well as cortical CGRP immunocytochemistry (rats killed at 15 min after CSD)
Rats were anaethetized with Equithesin (3 ml/kg) and placed in a stereotactic frame. The rectal temperature was maintained at 37.0±1.0° C. with a homeothermic blanket system. A polyethylene catheter was inserted into the femoral artery in order to monitor arterial blood pressure and take blood samples for arterial pH, pO2, pCO2 and glucose. The arterial blood gases were measured with i-STAT portable clinical analyzer (I-STAT), arterial blood pressure monitored with Cardiocap II blood pressure analyzer (datex-Ohmeda, Helsinki, Finland) and blood glucose with standard glucose meter (Arkray, Japan). The measurements were taken 10 min before as well as 5 min after the CSD episode. The skin was opened by a medical incision and retracted laterally. Three skull burr holes were drilled in a row unilaterally. One was placed over the frontal cortex, the second frontoparietally and the third one parietally (FIG. 1). A laser-Doppler flow probe (Oxyflow, Oxford Optronics, UK) to monitor CBF and a non-invasive tungsten electrode for measuring direct current (DC) potential shifts were placed in the frontal and frontoparietal burr holes on the intact dura, respectively. The laser-Doppler flow probe was positioned in an area free of large pial and dural vessels to minimize a large-vessel contribution to the signal. For the DC-potential measurement, a reference electrode was fixed in the neck. CSDs were elicited unilaterally by placing a KCl-soaked (3.0 M) piece of filter paper on the parietal opening for 5 min. The KCl exposure was terminated by flushing the opening with saline and placing a dry piece of filter paper on the opening. The CBF and DC-potentials were monitored continuously starting from 5 minutes before CSD and continuing up to 30 min after the KCl exposure.
All values were calculated as mean±standard deviation (SD) and differences were considered to be statistically significant as the P<0.05 level. Statistical analysis was performed using StatsDirect statistical software. Differences among means were analyzed by using one-way analysis of variance (ANOVA). […]

[2] = tested on: Calcitonin gene-related peptide (CGRP); assay: CSD-induced CGRP release in jugular vein blood (CGRP EIA); type: in vivo, rat (Wistar); settings: for CGRP release expressed as percent of baseline levels, 10-15 min: 10-15 min after induction of CSD; for CGRP release expressed as percent of baseline levels, 10-15 min / CGRP release expressed as percent of baseline levels, 20-25 min / CGRP release expressed as percent of baseline levels, Baseline: n = 5; for CGRP release expressed as percent of baseline levels, 20-25 min: 20-25 min after induction of CSD; for CGRP release expressed as percent of baseline levels, Baseline: baseline (before CSD)
Method: as §1
Following anesthesia (before CSD), a catheter was placed into the right jugular vein. 0.250 ml of blood was taken through the catheter for baseline measurement. For time course experiments further samples were taken at 10-15 and 20-25 min following initiation of CSD. Samples were stored in prepared Eppendorf tubes containing the protease inhibitors aprotinin (1000 KU, Bayer, Germany) and Pefabloc™ (1 mg/ml, Boehringer Mannheim, Germany), immediately cold centrifuged and stored at −80° C. The samples were acidified with trifluoroacetic acid and centrifuged at 6000 g for 20 min. The supernatant was extracted with Sep-Pak C-18 cartridges (Millipore, Waters, UK). Eluates were concentrated (dried) and dissolved in EIA buffer. CGRP concentrations were detected using a commercial CGRP EIA kit (S-3006, Bachem Distribution GmbH) according to the manufacturer's instructions.
All values were calculated as mean±standard deviation (SD) and differences were considered to be statistically significant as the P<0.05 level. Statistical analysis was performed using StatsDirect statistical software. Differences among means were analyzed by using one-way analysis of variance (ANOVA). Dunnet's post-hoc test was applied for multiple comparisons with a control group.

[3] = rat model of migraine, pre-treatment, 3 doses

Row | SMILES | Number of DC ([1]; 250 mg/kg i.p. 30 min before CSD episode) | CGRP release expressed as percent of baseline levels, 10-15 min ([2]; 250 mg/kg i.p.) | CGRP release expressed as percent of baseline levels, 20-25 min ([2]; 250 mg/kg i.p.) | CGRP release expressed as percent of baseline levels, Baseline ([2]; 250 mg/kg i.p.) | Number of DC ([1]; 3 mg/kg i.p. 30 min before CSD episode) | Number of DC ([1]; 10 mg/kg i.p. 30 min before CSD episode) | Number of DC ([1]; 30 mg/kg i.p. 30 min before CSD episode) | Effect on CSD / number of CSD-induced DC-potentials (in words) [1, 3] | CGRP release expressed as percent of baseline levels, 10-15 min ([2]; 3 mg/kg i.p.) | CGRP release expressed as percent of baseline levels, 20-25 min ([2]; 3 mg/kg i.p.) | CGRP release expressed as percent of baseline levels, Baseline ([2]; 3 mg/kg i.p.) | CGRP release expressed as percent of baseline levels, 10-15 min ([2]; 10 mg/kg i.p.) | CGRP release expressed as percent of baseline levels, 20-25 min ([2]; 10 mg/kg i.p.) | CGRP release expressed as percent of baseline levels, Baseline ([2]; 10 mg/kg i.p.) | CGRP release expressed as percent of baseline levels, 10-15 min ([2]; 30 mg/kg i.p.) | CGRP release expressed as percent of baseline levels, 20-25 min ([2]; 30 mg/kg i.p.) | CGRP release expressed as percent of baseline levels, Baseline ([2]; 30 mg/kg i.p.) | Effect on CSD-induced CGRP release / CGRP levels in blood (in words) [2, 3]
1 | CCCC(CCC)C(=O)O [Valproic acid, reference compound] | 3.7 ± 0.3 | 56 ± 8% | 71 ± 15% | 100 ± 0% |  |  |  |  |  |  |  |  |  |  |  |  |  | 
2 | COC[C@@H](NC(C)=O)C(=O)NCc1ccccc1 [SPM 927, (R)-2-acetamide-N-benzyl-3-methoxypropionamide] |  |  |  |  | 4.2 ± 0.4 | 3.3 ± 0.4 | 3.5 ± 0.6 | reduces; also recorded: significant suppression | 126 ± 45% | 35 ± 7% | 100 ± 0% | 114 ± 27% | 66 ± 31% | 100 ± 0% | 92 ± 53% | 71 ± 12% | 100 ± 0% | reduces; also recorded: significant suppression
